In the supplement of paper PMC10307832:

Tests used:
Assay in all cases: relative viability (nuclei count vs DMSO), 5 days (fraction); higher = more cells survive
AGI-6780 + Luminespib = compound: O=C(Nc1cccc(C(F)(F)F)c1)Nc1cc(S(=O)(=O)NC2CC2)ccc1-c1ccsc1 [AGI-6780] + CCNC(=O)c1noc(-c2cc(C(C)C)c(O)cc2O)c1-c1ccc(CN2CCOCC2)cc1 [Luminespib] (partner 0.01 µM)
Summary of the method: (§1)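 Relative viability was taken as the ratio of nuclei in treated wells to nuclei in vehicle wells. Lung cancer cell lines in 1536-well plates received compounds by pin tool one day after seeding, either one drug alone or a fixed anchor-drug dose plus five library-drug doses (not always all listed) in √10 steps. Nuclei were counted on 4× images after 5 days of treatment, and values are medians of duplicate plates.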

AGI-6780 + Foretinib = compound: O=C(Nc1cccc(C(F)(F)F)c1)Nc1cc(S(=O)(=O)NC2CC2)ccc1-c1ccsc1 [AGI-6780] + COc1cc2c(Oc3ccc(NC(=O)C4(C(=O)Nc5ccc(F)cc5)CC4)cc3F)ccnc2cc1OCCCN1CCOCC1 [Foretinib] (partner 0.25 µM)
Summary of the method: as §1

AGI-6780 + Linsitinib = compound: O=C(Nc1cccc(C(F)(F)F)c1)Nc1cc(S(=O)(=O)NC2CC2)ccc1-c1ccsc1 [AGI-6780] + C[C@]1(O)C[C@@H](c2nc(-c3ccc4ccc(-c5ccccc5)nc4c3)c3c(N)nccn32)C1 [Linsitinib] (partner 1 µM)
Summary of the method: as §1

AGI-6780 + Navitoclax = compound: O=C(Nc1cccc(C(F)(F)F)c1)Nc1cc(S(=O)(=O)NC2CC2)ccc1-c1ccsc1 [AGI-6780] + CC1(C)CCC(c2ccc(Cl)cc2)=C(CN2CCN(c3ccc(C(=O)NS(=O)(=O)c4ccc(N[C@H](CCN5CCOCC5)CSc5ccccc5)c(S(=O)(=O)C(F)(F)F)c4)cc3)CC2)C1 [Navitoclax] (partner 0.5 µM)
Summary of the method: as §1

| Cell Line | relative viability (AGI-6780 + Luminespib; first compound 0.08 µM) | relative viability (AGI-6780 + Luminespib; first compound 0.253 µM) | relative viability (AGI-6780 + Luminespib; first compound 0.8 µM) | relative viability (AGI-6780 + Luminespib; first compound 2.53 µM) | relative viability (AGI-6780 + Luminespib; first compound 8 µM) | relative viability (AGI-6780 + Foretinib; first compound 0.08 µM) | relative viability (AGI-6780 + Foretinib; first compound 0.253 µM) | relative viability (AGI-6780 + Foretinib; first compound 0.8 µM) | relative viability (AGI-6780 + Foretinib; first compound 2.53 µM) | relative viability (AGI-6780 + Foretinib; first compound 8 µM) | relative viability (AGI-6780 + Linsitinib; first compound 0.08 µM) | relative viability (AGI-6780 + Linsitinib; first compound 0.253 µM) | relative viability (AGI-6780 + Linsitinib; first compound 0.8 µM) | relative viability (AGI-6780 + Linsitinib; first compound 8 µM) | relative viability (AGI-6780 + Navitoclax; first compound 0.08 µM) | relative viability (AGI-6780 + Navitoclax; first compound 0.253 µM) | relative viability (AGI-6780 + Navitoclax; first compound 0.8 µM) | relative viability (AGI-6780 + Navitoclax; first compound 8 µM) | relative viability (AGI-6780 + Linsitinib; first compound 2.53 µM) | relative viability (AGI-6780 + Navitoclax; first compound 2.53 µM) |
| --- | --- | --- | --- | --- | --- | --- | --- | --- | --- | --- | --- | --- | --- | --- | --- | --- | --- | --- | --- | --- |
| NCI-H2405 | 0.686 | 0.718 | 0.5 | 0.515 | 0.65 | 1.06 | 1.01 | 0.746 | 1.02 | 1 | 0.931 | 0.933 | 0.687 | 0.845 | 0.8 | 0.9 | 0.725 | 0.836 | – | – |
| NCI-H3122 | 0.0953 | 0.0902 | 0.113 | 0.0851 | 0.0997 | 0.971 | 0.959 | 1.08 | 1.03 | 0.983 | 1.03 | 0.982 | 1.01 | 1.04 | 1.03 | 1.03 | 1.02 | 0.977 | 1.08 | 1.07 |
| PC-3 [JPC-3] | 0.59 | 0.71 | 0.727 | 0.629 | 0.67 | 1.08 | 0.986 | 0.969 | 1.05 | 1.01 | 0.995 | 0.952 | 0.904 | 0.953 | 0.898 | 0.872 | 0.77 | 0.774 | 0.926 | 0.752 |
| PC-14 | 0.228 | 0.195 | 0.171 | 0.118 | 0.121 | 0.902 | 1.1 | 1.02 | 0.941 | 0.979 | 0.983 | 0.925 | 0.832 | 0.937 | 1.06 | 0.967 | 0.849 | 0.952 | 0.903 | 1.01 |
| RERF-LC-KJ | 1.25 | 1.17 | 1.33 | 1.16 | 1.17 | 0.871 | 0.904 | 0.88 | 0.597 | 0.909 | 0.863 | 1 | 0.837 | 0.845 | 1.18 | 1.08 | 1.16 | 0.911 | 0.822 | 0.834 |
| SK-LU-1 | 0.22 | 0.192 | – | 0.199 | 0.224 | 0.873 | 0.859 | – | 0.737 | 0.831 | 1.11 | 0.976 | 0.76 | 1.16 | 0.904 | 0.961 | 0.418 | 0.955 | 0.917 | 0.851 |
| SK-MES-1 | 0.716 | 0.714 | 0.798 | 0.677 | 0.801 | 0.896 | 1.01 | 0.773 | 0.709 | 0.833 | 1.08 | 1.06 | 0.92 | 1.09 | 1.31 | 1.22 | 1.09 | 1.28 | 0.984 | 1.21 |
| SW 1573 | 0.462 | 0.398 | 0.216 | 0.216 | 0.287 | 0.881 | 1.01 | 0.93 | 0.836 | 0.903 | 0.818 | 0.911 | 0.868 | 0.831 | 1.21 | 1.07 | 1.14 | 1.14 | 0.652 | 0.973 |
| UMC-11 | 1.16 | 1 | 1.22 | – | 1.11 | 1.03 | 1.03 | 1.23 | – | 1.19 | 0.868 | 0.968 | 1.08 | 0.987 | 0.318 | 0.372 | 0.348 | 0.399 | – | – |
